How the values were obtained:
wildtype LRRK2 = target: T1, wildtype LRRK2 (Homo sapiens, UniProt Q5S007); assay: LRRK2 degradation HiBit assay, wildtype LRRK2 tagged with a HiBit tag in HEK293 cells; format: cell-based; settings: 24 hours compound incubation, read-out: *WT DC50
T1 construct: endogenous in cells; host or cells: HEK293 with HiBit knocked in at the 3' end of the endogenous LRRK2 gene, stably expressing firefly luciferase
In short: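 HEK293 cells transiently co-transfected with ubiquitin-promoter-driven C-terminally HiBit-tagged wildtype LRRK2 plus firefly luciferase, then treated with compound for 24 h at 37° C. HiBit/luciferase ratio ×1000 normalized to DMSO median; DC50 and Dmax fitted per plate, six replicates across two days.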

G2019S LRRK2 = target: T2, G2019S LRRK2 (Homo sapiens, UniProt Q5S007, G2019S); assay: LRRK2 degradation HiBit assay, G2019S LRRK2 tagged with a HiBit tag expressed in HEK293 cells; format: cell-based; settings: 24 hours compound incubation; for Dmax: HEK293, HEK293 cells; for DC50: HEK293 cells
T2 construct: expressed in transfected cells; host or cells: HEK293 (ATCC CRL-1573)
T2 sequence (Q5S007 whole entry G2019S): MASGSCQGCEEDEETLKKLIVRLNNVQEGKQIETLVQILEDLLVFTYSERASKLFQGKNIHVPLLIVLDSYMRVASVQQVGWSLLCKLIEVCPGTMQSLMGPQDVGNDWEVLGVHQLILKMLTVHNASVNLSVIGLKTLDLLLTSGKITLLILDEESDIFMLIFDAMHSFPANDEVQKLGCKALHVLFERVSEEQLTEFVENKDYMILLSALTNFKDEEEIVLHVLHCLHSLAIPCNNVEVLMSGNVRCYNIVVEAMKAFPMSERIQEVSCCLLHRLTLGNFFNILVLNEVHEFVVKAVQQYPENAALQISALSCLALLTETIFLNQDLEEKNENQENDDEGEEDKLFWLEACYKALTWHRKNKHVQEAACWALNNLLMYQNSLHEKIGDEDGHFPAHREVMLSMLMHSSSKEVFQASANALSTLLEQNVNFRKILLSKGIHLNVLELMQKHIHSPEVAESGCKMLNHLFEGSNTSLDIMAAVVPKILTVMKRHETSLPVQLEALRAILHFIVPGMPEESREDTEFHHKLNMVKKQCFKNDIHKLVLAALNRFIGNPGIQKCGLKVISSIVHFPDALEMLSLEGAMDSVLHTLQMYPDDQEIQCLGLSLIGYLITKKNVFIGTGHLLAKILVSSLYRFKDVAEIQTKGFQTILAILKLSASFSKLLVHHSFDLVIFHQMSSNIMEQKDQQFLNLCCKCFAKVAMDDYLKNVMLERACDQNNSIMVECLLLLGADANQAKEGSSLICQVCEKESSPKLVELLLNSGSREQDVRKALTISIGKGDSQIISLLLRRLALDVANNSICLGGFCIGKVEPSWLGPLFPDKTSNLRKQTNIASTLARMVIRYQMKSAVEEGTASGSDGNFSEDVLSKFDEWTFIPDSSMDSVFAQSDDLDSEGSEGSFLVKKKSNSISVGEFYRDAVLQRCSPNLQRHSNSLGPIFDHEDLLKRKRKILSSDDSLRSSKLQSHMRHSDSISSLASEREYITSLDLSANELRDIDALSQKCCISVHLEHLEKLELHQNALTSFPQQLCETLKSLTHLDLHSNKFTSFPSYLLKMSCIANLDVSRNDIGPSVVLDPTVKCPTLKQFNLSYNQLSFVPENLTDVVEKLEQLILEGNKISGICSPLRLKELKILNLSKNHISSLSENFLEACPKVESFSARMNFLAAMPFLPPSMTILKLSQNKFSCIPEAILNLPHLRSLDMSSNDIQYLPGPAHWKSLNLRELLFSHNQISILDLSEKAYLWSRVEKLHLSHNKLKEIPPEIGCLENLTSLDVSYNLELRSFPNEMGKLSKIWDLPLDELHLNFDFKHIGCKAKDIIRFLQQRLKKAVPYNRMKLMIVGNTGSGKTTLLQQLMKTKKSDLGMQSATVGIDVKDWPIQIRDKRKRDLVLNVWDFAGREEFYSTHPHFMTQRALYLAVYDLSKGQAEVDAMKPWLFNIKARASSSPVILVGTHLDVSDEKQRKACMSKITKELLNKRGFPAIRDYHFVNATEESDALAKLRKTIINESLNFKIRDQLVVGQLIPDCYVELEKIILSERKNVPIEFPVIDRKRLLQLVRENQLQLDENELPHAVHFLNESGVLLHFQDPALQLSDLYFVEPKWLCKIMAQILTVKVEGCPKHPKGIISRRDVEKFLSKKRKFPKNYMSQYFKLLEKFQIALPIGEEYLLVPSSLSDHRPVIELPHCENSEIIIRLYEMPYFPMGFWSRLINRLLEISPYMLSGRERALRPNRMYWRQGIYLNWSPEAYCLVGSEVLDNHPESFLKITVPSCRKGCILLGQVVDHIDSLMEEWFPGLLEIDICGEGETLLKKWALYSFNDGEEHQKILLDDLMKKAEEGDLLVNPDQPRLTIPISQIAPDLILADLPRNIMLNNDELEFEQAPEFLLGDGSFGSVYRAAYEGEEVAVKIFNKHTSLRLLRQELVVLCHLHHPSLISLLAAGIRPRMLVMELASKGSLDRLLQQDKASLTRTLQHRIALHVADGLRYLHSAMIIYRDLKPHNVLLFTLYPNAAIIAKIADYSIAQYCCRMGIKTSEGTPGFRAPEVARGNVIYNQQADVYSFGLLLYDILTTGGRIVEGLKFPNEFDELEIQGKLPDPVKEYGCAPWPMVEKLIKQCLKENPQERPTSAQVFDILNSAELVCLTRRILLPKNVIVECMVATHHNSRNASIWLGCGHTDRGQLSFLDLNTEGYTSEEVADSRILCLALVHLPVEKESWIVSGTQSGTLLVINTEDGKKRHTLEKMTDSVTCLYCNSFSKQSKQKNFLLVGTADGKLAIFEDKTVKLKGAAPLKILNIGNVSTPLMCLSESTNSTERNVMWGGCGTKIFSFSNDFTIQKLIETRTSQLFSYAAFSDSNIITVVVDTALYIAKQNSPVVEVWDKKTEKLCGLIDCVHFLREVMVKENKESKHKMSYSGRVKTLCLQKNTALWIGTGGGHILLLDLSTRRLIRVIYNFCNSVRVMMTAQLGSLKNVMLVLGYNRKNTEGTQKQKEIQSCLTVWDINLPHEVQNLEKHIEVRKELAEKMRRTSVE
In short: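 HEK293 cells were transiently transfected with G2019S LRRK2 carrying a C-terminal HiBit tag (ubiquitin promoter) plus firefly luciferase, then exposed to compound for 24 h at 37 °C. Dual luminescence gave the HiBit/luciferase ratio ×1000, normalised to DMSO. DC50 and Dmax were fitted per plate.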

T1 sequence (Q5S007 whole entry): as the sequence (Q5S007 whole entry G2019S) above, with S2019G counted along it

Row | DC50 (wildtype LRRK2) [nM] | Dmax (G2019S LRRK2) [%] | DC50 (G2019S LRRK2) [nM] | Compound
1 | ≥ 100 | < 50 | 10 to 50 | CC1=C(C(=O)Nc2ccc3[nH]nc(-c4ccnc(N5CCN(CC6CCN(CC7CCN(c8ccc9c(c8)C(=O)N(C8CCC(=O)NC8=O)C9=O)CC7)CC6)[C@@H](C)C5)c4)c3c2)C(C)(C)n2nnnc2N1C (stereo partly drawn) [compound 34, N-(3-{2-[(3S)-4-{[1-({1-[2-(2,6-dioxopiperidin-3-yl)-1,3-dioxo-2,3-dihydro-1H-isoindol-5-yl]piperidin-4-yl}methyl)piperidin-4-yl]methyl}-3-methylpiperazin-1-yl]pyridin-4-yl}-1H-indazol-5-yl)-4,5,7,7-tetramethyl-4H,7H-[1,2,3,4]tetrazolo[1,5-a]pyrimidine-6-carboxamide]
2 | ≥ 100 | < 50 | 10 to 50 | CC1=C(C(=O)Nc2ccc3[nH]nc(-c4ccnc(N5CCN(CCN6CCN(CC7CCN(c8ccc9c(c8)C(=O)N(C8CCC(=O)NC8=O)C9=O)CC7)CC6)CC5)c4)c3c2)C(C)(C)n2nnnc2N1C (stereo not drawn) [compound 35, N-{3-[2-(4-{2-[4-({1-[2-(2,6-dioxopiperidin-3-yl)-1,3-dioxo-2,3-dihydro-1H-isoindol-5-yl]piperidin-4-yl}methyl)piperazin-1-yl]ethyl}piperazin-1-yl)pyridin-4-yl]-1H-indazol-5-yl}-4,5,7,7-tetramethyl-4H,7H-[1,2,3,4]tetrazolo[1,5-a]pyrimidine-6-carboxamide]
3 | ≥ 100 | < 50 | ≥ 100 | CC1=C(C(=O)Nc2ccc3[nH]nc(-c4ccnc(N5CCN(CCN6CCC(CN7CCN(c8ccc9c(c8)C(=O)N(C8CCC(=O)NC8=O)C9=O)CC7)CC6)[C@@H](C)C5)c4)c3c2)C(C)(C)n2nnnc2N1C (stereo partly drawn) [compound 36, N-(3-{2-[(3S)-4-{2-[4-({4-[2-(2,6-dioxopiperidin-3-yl)-1,3-dioxo-2,3-dihydro-1H-isoindol-5-yl]piperazin-1-yl}methyl)piperidin-1-yl]ethyl}-3-methylpiperazin-1-yl]pyridin-4-yl}-1H-indazol-5-yl)-4,5,7,7-tetramethyl-4H,7H-[1,2,3,4]tetrazolo[1,5-a]pyrimidine-6-carboxamide]

From US12473294B2, “Selective modulators of mutant LRRK2 proteolysis and associated methods of use” (Arvinas Operations, Inc., priority 2020, dated 2025)
